IC50 data for 37 compounds are collected here from US8299056B2 (Signal Pharmaceuticals, LLC, priority 2008, dated 2012).

The first experiment deals with T1, Syk (Homo sapiens, UniProt P43405).
T1 construct: purchased Carna Biosciences
Description: Syk HTRF assay. It counts as biochemical. The following applies: IC50 activity level, read-out: Activity Level. Put shortly:
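Read-out is the 665 nm/615 nm time-resolved fluorescence ratio after EDTA stop and Eu-anti-phosphotyrosine plus streptavidin-DyLight 647 detection. Reaction ran 1 h at room temperature with start mix of 87.5 μM ATP and 80 nM substrate peptide in pH 7.6 HEPES/MgCl2 buffer.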
(Time-resolved FRET reads energy transfer from a long-lived donor to a nearby acceptor.)
Regarding `N[C@H]1CC[C@@H](Nc2cccc3nc(Nc4ccccc4)nn23)CC1` [Example 508, cis-N^5-(4-aminocyclohexyl)-N^2-phenyl-[1,2,4]triazolo[1,5-a]pyridine-2,5-diamine], the IC50 lay within 250 to 500 nM. Consider `Nc1cc(-c2cccc3nc(Nc4ccccc4)nn23)ccn1` [Example 445, 5-(2-aminopyridin-4-yl)-N-phenyl-[1,2,4]triazolo[1,5-a]pyridin-2-amine], for which the IC50 was in the range of 0.005 to 250 nM.

Consider `c1ccc(Nc2nc3cccc(C4CCNCC4)n3n2)cc1` [Example 512, N-phenyl-5-(piperidin-4-yl)-[1,2,4]triazolo[1,5-a]pyridin-2-amine], for which the IC50 fell in the range of 1000 to 10000 nM. For the compound `c1ccc(Nc2nc3cccc(-c4ccccn4)n3n2)cc1` [Example 488, N-phenyl-5-(pyridin-2-yl)-[1,2,4]triazolo[1,5-a]pyridin-2-amine], the IC50 fell in the range of 1000 to 10000 nM. With `OC(c1cccc2nc(Nc3ccccc3)nn12)C1CCN(Cc2ccccc2)CC1` (stereo not shown) [Example 491, (1-benzylpiperidin-4-yl)(2-(phenylamino)-[1,2,4]triazolo[1,5-a]pyridin-5-yl)methanol], the IC50 is 1000 to 10000 nM.

For `CNC(=O)c1ccc(Nc2nc3cccc(-c4ccc5[nH]ncc5c4)n3n2)cc1` [Example 426, 4-(5-(1H-indazol-5-yl)-[1,2,4]triazolo[1,5-a]pyridin-2-ylamino)-N-methylbenzamide], the IC50 lay in the range of 0.005 to 250 nM.

For the compound `O=C(N[C@H]1CCCNC1)c1cccc2nc(Nc3ccccc3)nn12` [Example 504, (S)-2-(phenylamino)-N-(piperidin-3-yl)-[1,2,4]triazolo[1,5-a]pyridine-5-carboxamide], the IC50 was in the range of 1000 to 10000 nM. On to `Cc1n[nH]c2cc(Nc3nc4cccc(C(F)(F)C5CCOCC5)n4n3)ccc12` [Example 562, 5-(difluoro(tetrahydro-2H-pyran-4-yl)methyl)-N-(3-methyl-1H-indazol-6-yl)-[1,2,4]triazolo[1,5-a]pyridin-2-amine], for which the IC50 lay in the range of 0.005 to 250 nM.

Regarding `OC(c1cccnc1)c1cccc2nc(Nc3ccccc3)nn12` (stereo not shown) [Example 501, (2-(phenylamino)-[1,2,4]triazolo[1,5-a]pyridin-5-yl)(pyridin-3-yl)methanol], the IC50 was 250 to 500 nM. Regarding `CC1(C)C(=O)Nc2cc(Nc3nc4cccc(CC5CCOC5)n4n3)ccc21` (single isomer, unassigned; enantiomer 1) [Example 561, 3,3-dimethyl-6-(5-((tetrahydrofuran-3-yl)methyl)-[1,2,4]triazolo[1,5-a]pyridin-2-ylamino)indolin-2-one (enantiomer 1)], the IC50 fell in the range of 0.005 to 250 nM. As for `Cn1ncc2ccc(Nc3nc4cccc(N[C@H]5CCCNC5)n4n3)cc21` [Example 466, (S)-N^2-(1-methyl-1H-indazol-6-yl)-N^5-(piperidin-3-yl)-[1,2,4]triazolo[1,5-a]pyridine-2,5-diamine], the IC50 is 0.005 to 250 nM. Still for that read-out and setting: for `c1ccc(Nc2nc3cccc(-c4ccc5nc[nH]c5c4)n3n2)cc1` [Example 514, 5-(1H-benzo[d]imidazol-6-yl)-N-phenyl-[1,2,4]triazolo[1,5-a]pyridin-2-amine] the value was 0.005 to 250 nM; for `NC(=O)c1ccc(Nc2nc3cccc(NC4CCCNC4)n3n2)cc1` (stereo in doubt) [Example 476, (R)-4-(5-(piperidin-3-ylamino)-[1,2,4]triazolo[1,5-a]pyridin-2-ylamino)benzamide], 1000 to 10000 nM.

Still in this experiment, the particulars now being: activity levels A-D, read-out: Activity Level (IC50 in the Syk HTRF assay).
For the compound `COc1cccc(Nc2nc3cccc(N[C@H]4CC[C@@H](O)CC4)n3n2)n1` [Example 342, cis-4-(2-(6-methoxypyridin-2-ylamino)-[1,2,4]triazolo[1,5-a]pyridin-5-ylamino)cyclohexanol], the IC50 fell in the range of 1000 to 10000 nM. Same read-out and setting: the result for `OCCCOc1cccc2nc(Nc3ccc(C(F)(F)F)cc3)nn12` [Example 304, 3-(2-(4-(trifluoromethyl)phenylamino)-[1,2,4]triazolo[1,5-a]pyridin-5-yloxy)propan-1-ol] reads 1000 to 10000 nM. On to `Cc1ccc(Nc2nc3cccc(N[C@H]4CC[C@@H](O)CC4)n3n2)cc1` [Example 343, cis-4-(2-(p-tolylamino)-[1,2,4]triazolo[1,5-a]pyridin-5-ylamino)cyclohexanol], for which the IC50 lay within 0.005 to 250 nM.

With `NC(=O)CNCc1cccc2nc(Nc3ccc(C(F)(F)F)cc3)nn12` [Example 290, 2-((2-(4-(trifluoromethyl)phenylamino)-[1,2,4]triazolo[1,5-a]pyridin-5-yl)methylamino)acetamide], the IC50 lay within 0.005 to 250 nM. `Cn1ncc2cc(Nc3nc4cccc(N[C@H]5CC[C@@H](O)CC5)n4n3)ccc21` [Example 236, cis-4-(2-(1-methyl-1H-indazol-5-ylamino)-[1,2,4]triazolo[1,5-a]pyridin-5-ylamino)cyclohexanol]: the IC50 was 0.005 to 250 nM. With `O[C@H]1CCN(Cc2cccc3nc(Nc4ccc(C(F)(F)F)cc4)nn23)C1` [Example 336, (S)-1-((2-(4-(trifluoromethyl)phenylamino)-[1,2,4]triazolo[1,5-a]pyridin-5-yl)methyl)pyrrolidin-3-ol], the IC50 lay within 1000 to 10000 nM. Still for that read-out and setting: the result for `CO[C@H]1CC[C@@H](N(C)c2cccc3nc(Nc4ccc(C(F)(F)F)cc4)nn23)CC1` [Example 265, cis-N^5-(4-methoxycyclohexyl)-N^5-methyl-N^2-(4-(trifluoromethyl)phenyl)-[1,2,4]triazolo[1,5-a]pyridine-2,5-diamine] reads 1000 to 10000 nM; that for `C[C@@H](CO)Nc1cccc2nc(Nc3ccc(C(F)(F)F)cc3)nn12` [Example 329, (S)-2-(2-(4-(trifluoromethyl)phenylamino)-[1,2,4]triazolo[1,5-a]pyridin-5-ylamino)propan-1-ol], 500 to 1000 nM; that for `Cn1ncc2ccc(Nc3nc4cccc(N[C@H]5CC[C@@H](O)CC5)n4n3)cc21` [Example 364, cis-4-(2-(1-methyl-1H-indazol-6-ylamino)-[1,2,4]triazolo[1,5-a]pyridin-5-ylamino)cyclohexanol], 0.005 to 250 nM. On the same count and under the same terms, the result for `CNC(=O)CNCc1cccc2nc(Nc3ccc(C(F)(F)F)cc3)nn12` [Example 213, N-methyl-2-((2-(4-(trifluoromethyl)phenylamino)-[1,2,4]triazolo[1,5-a]pyrridin-5-yl)methylamino)acetamide] reads 1000 to 10000 nM; that for `O=C1NCC[C@H]1NCc1cccc2nc(Nc3ccc(C(F)(F)F)cc3)nn12` [Example 205, (R)-3-((2-(4-(trifluoromethyl)phenylamino)-[1,2,4]triazolo[1,5-a]pyridin-5-yl)methylamino)pyrrolidin-2-one], 1000 to 10000 nM. Regarding `CNC(=O)c1cccc(Nc2nc3cccc(N[C@H]4CC[C@@H](O)CC4)n3n2)c1` [Example 316, cis-3-(5-(4-hydroxycyclohexylamino)-[1,2,4]triazolo[1,5-a]pyridin-2-ylamino)-N-methylbenzamide], the IC50 was 250 to 500 nM. For the compound `Cc1n[nH]c2cc(Nc3nc4cccc(NC5CCOCC5)n4n3)ccc12` [Example 209, N^2-(3-methyl-1H-indazol-6-yl)-N^5-(tetrahydro-2H-pyran-4-yl)-[1,2,4]triazolo[1,5-a]pyridin-2,5-diamine], the IC50 was in the range of 0.005 to 250 nM.

For `CC(C)C1CNC(=O)CN1Cc1cccc2nc(Nc3ccc(C(F)(F)F)cc3)nn12` (racemic) [Example 230, (±)-5-isopropyl-4-((2-(4-(trifluoromethyl)phenylamino)-[1,2,4]triazolo[1,5-a]pyridin-5-yl)methyl)piperazin-2-one], the IC50 was in the range of 1000 to 10000 nM. Turning to `NC(=O)c1ccc(Nc2nc3cccc(N[C@H]4CC[C@@H](O)CC4)n3n2)cn1` [Example 370, cis-5-(5-(4-hydroxycyclohexylamino)-[1,2,4]triazolo[1,5-a]pyridin-2-ylamino)picolinamide], the IC50 is 500 to 1000 nM.

Still in this experiment, the particulars now being: read-out: Activity Level (Syk HTRF assay IC50).
Consider `Cc1cc(Nc2nc3cccc(N[C@H]4CC[C@@H](O)CC4)n3n2)cc2c1C(C)(C)C(=O)N2` [compound 109, cis-6-(5-(4-hydroxycyclohexylamino)-[1,2,4]triazolo[1,5-a]pyridin-2-ylamino)-3,3,4-trimethylindolin-2-one], for which the IC50 was 0.005 to 250 nM.

As for `COCc1nc2ccc(Nc3nc4cccc(NC5CCOCC5)n4n3)cc2[nH]1` [Example 142, N^2-(2-(methoxymethyl)-1H-benzo[d]imidazol-6-yl)-N^5-(tetrahydro-2H-pyran-4-yl)-[1,2,4]triazolo[1,5-a]pyridine-2,5-diamine], the IC50 lay in the range of 250 to 500 nM. For the compound `COc1ccc(Nc2nc3cccc(-c4ccccc4)n3n2)cn1` [compound 71, N-(6-methoxypyridin-3-yl)-5-phenyl-[1,2,4]triazolo[1,5-a]pyridin-2-amine], the IC50 is 1000 to 10000 nM. In the case of `NCCN1Cc2cc(Nc3nc4cccc(-c5ccccc5)n4n3)ccc2C1=O` [compound 45, 2-(2-aminoethyl)-5-(5-phenyl-[1,2,4]triazolo[1,5-a]pyridin-2-ylamino)isoindolin-1-one], the IC50 is 250 to 500 nM. Consider `Cc1n[nH]c2cc(Nc3nc4cccc(NC5COCC5O)n4n3)ccc12` (racemic) [Example 166, (±)-trans-4-(2-(3-methyl-1H-indazol-6-ylamino)-[1,2,4]-triazolo[1,5-a]pyridin-5-ylamino)tetrahydrofuran-3-ol], for which the IC50 was 0.005 to 250 nM.

Turning to `NC(=O)c1ccc(Nc2nc3cccc(-c4ccccc4)n3n2)cc1` [Example 88], the IC50 lay in the range of 0.005 to 250 nM. With `CN(C)c1ccc(Nc2nc3cccc(-c4ccccc4)n3n2)cc1` [Example 94], the IC50 was 0.005 to 250 nM. In the case of `CNC(=O)c1ccc(Nc2nc3cccc(-c4ccc(-c5c[nH]cn5)cc4)n3n2)cc1` [compound 9, 4-(5-(4-(1H-imidazol-4-yl)phenyl)-[1,2,4]triazolo[1,5-a]pyridin-2-ylamino)-N-methylbenzamide], the IC50 was in the range of 0.005 to 250 nM.

Consider `CC1(C)C(=O)Nc2cc(Nc3nc4cccc(C[C@H]5CC[C@](C)(O)CC5)n4n3)ccc21` [Example 140, cis-6-(5-((4-hydroxy-4-methylcyclohexyl)methyl)-[1,2,4]triazolo[1,5-a]pyridin-2-ylamino)-3,3-dimethylindolin-2-one], for which the IC50 was 0.005 to 250 nM.
